Data from US20260193672A1, “INDUCIBLE CELL SUICIDE SWITCHES AND THEIR USE IN CELL AND GENE THERAPIES” (The General Hospital Corporation, priority 2022, published 2026).

Experiments:
[1] = tested on: Jurkat cells; assay: Loss of BFP+ cells with three degron tags fused to ICAD; assay type: cell-based; details: 48 hours of exposure to controller drug; SMASH tag, dTAG or IKZF3 degron fused to ICAD
Experimental: (§1) Unless otherwise indicated, cell death assays with Jurkat or primary human T cells were performed by 48 hour incubation with the relevant drug and flow cytometry analysis for the marker of transduction.
To determine whether the ICAD-degron CAD suicide switch design is generalizable to multiple degron systems, three different degron tags (SMASH, dTag, superdegron) were fused to ICAD to facilitate ICAD degradation.

[2] = tested on: Jurkat cells expressing the switch; assay: DNA damage assay (gamma-H2AX intracellular flow); assay type: cell-based
From the text: To determine whether promoter strength modifies ICADdegron-CAD suicide switch efficiency, Jurkat cells were transduced to express the ICAD-degron 2A CAD p.R11W suicide switch was expressed, driven by an EF1alpha or PGK promoter.

[3] = tested on: ICAD-degron/CAD suicide switch-positive primary human T cells; assay: Depletion of ICAD-degron/CAD suicide switch-positive T cells; assay type: cell-based; details: 1 uM lenalidomide treatment
Experimental: as §1
Control of CAR T cell function with a lenalidomide suicide switch was also evaluated.

[4] = tested on: NALM6 tumor cells; assay: Incucyte live cell imaging co-culture assay, tumor cell cytolysis; assay type: cell-based
Experimental: (§2) On day −1, tissue culture plates were coated with anti-CD71 antibody diluted in PBS. On day 0, the plates were washed with PBS and then Nalm6-luciferase-GFP cells were added to the coated plates. Four hours later, primary human CAR T cells were added at a 1:1 ratio with the Nalm6 cells. Plates were imaged every hour for at least 90 hours ([…] ZOOM, live-cell analysis system). Total green, red, and blue object areas were collected, indicative of GFP+ tumor and mCherry+/mTagBFP2+ CAR and/or suicide switch T cell area.
Tumor cell cytolysis was evaluated by Incucyte live cell imaging co-culture assay with NALM6 tumor cells.
We also generated a tri-cistronic suicide switch CAR lentivector. The same Incucyte live cell imaging co-culture assay with NALM6 tumor cells and single lentivector ICAD-degron/CAD/CAR was performed in primary human T cells. […] With lenalidomide, anti-tumor cytolysis was prevented.

[5] = tested on: suicide switch CAR T cells; assay: Incucyte live cell imaging co-culture assay, CAR T cell proliferation; assay type: cell-based, human
Experimental: as §2
In summary, the suicide switch can be used to deplete CAR T cells (FIG. 6E).

[6] = tested on: cells transduced to express pairs of BCL-xL and variants of PUMA; assay: Growth and survival of cells expressing BCL-xL and PUMA variants fused to 913iK0; assay type: cell-based; details: BCL-xL and PUMA variants fused to E3 recruitment domain 913iK0
Experimental: Pairs of pro/anti-apoptotic proteins were evaluated for their ability to work as an effective suicide switch. BCL-xL and BIM transgene pairs were toxic to Jurkat cells transduced to express these lentiviruses, as assessed by total cell number 48 hours after high-titer transduction, see FIG. 1A. […] In this design, the goal was for the pro-apoptotic protein PUMA to bind endogenous anti-apoptotic proteins, and for drug-dependent recruitment to the E3 to result in anti-apoptotic protein ubiquitination, degradation, and cell death.

[7] = tested on: cells expressing ICAD-degron/CAD; assay: Cell depletion by ICAD-degron/CAD lenalidomide-inducible suicide switch (summary statement); assay type: cell-based; details: lenalidomide-induced, subtherapeutic lenalidomide concentrations
Experimental: as §1

[8] = tested on: primary human CAR T cells; assay: Competitive proliferation assay of suicide switch-transduced versus untransduced cells; assay type: cell-based; details: without lenalidomide
From the text: Cells were stimulated weekly with an equal number of irradiated K562 cells transduced to express CD3 and CD28 scFvs. Flow cytometry was used to enumerate the percentage of mTagBFP2+ cells on days 0, 7, and 14.

[9] = tested on: primary human T cells; assay: Cell depletion, CAD/ICAD versus iCasp9 suicide switch, head-to-head; assay type: cell-based; details: dose ranges of lenalidomide and AP1903, normalized to untreated cells
Experimental: as §1

[10] = tested on: Jurkat cells; assay: Competitive growth assay of modified lenalidomide suicide switches; assay type: cell-based; details: for cell viability, normalized fluorescence: in the absence of lenalidomide, normalized to % transduced on day 0
From the text: To assess whether further modification of CAD could further enhance the suicide switch, we performed structural modeling of CAD, identifying side chain interactions with R11 and W 11 in the mutant form.

[11] = tested on: primary human T cell; assay: Four-day growth assay; assay type: cell-based; details: compared with other CAD sequences and vector control
Experimental: To test whether variations in CAD modify the performance of CAD/ICAD suicide switch, a primary human T cell four-day growth assay was performed comparing vector control, and then three modifications of ICAD-degron 2A CAD expression, differentiated by the CAD sequences.

Molecule: CC[C@H](C(=O)N1CCCC[C@H]1C(=O)O[C@H](CCc1ccc(OC)c(OC)c1)c1ccccc1OCC(=O)NCCCCCCOc1cccc2c1C(=O)N(C1CCC(=O)NC1=O)C2=O)c1cc(OC)c(OC)c(OC)c1 (stereo partly drawn) [dTAG-13, 1-[(2S)-1-Oxo-2-(3,4,5-trimethoxyphenyl)butyl]-(2S)-2-piperidinecarboxylate (1R)-3-(3,4-dimethoxyphenyl)-1-[2-[2-[[6-[[2-(2,6-dioxo-3-piperidinyl)-2,3-dihydro-1,3-dioxo-1H-isoindol-4-yl]oxy]hexyl]amino]-2-oxoethoxy]phenyl]propyl ester]
- drug-dependent cell depletion (loss of BFP+ cells) [1]: allowed for drug-dependent cell depletion

Molecule: Nc1nc(O)c2ncn(COC(CO)CO)c2n1 [ganciclovir]
- drug-dependent cell depletion (loss of BFP+ cells) [1]: but not the SMASH tag, allowed for drug-dependent cell depletion

Molecule: Nc1cccc2c1CN(C1CCC(=O)NC1=O)C2=O (stereo not drawn) [lenalidomide]
- time in which DNA damage sensing occurred ([2]; gamma-H2AX, timecourse after 1000 nM lenalidomide addition): within one hour
- depletion of suicide switch-positive primary human T cells [3]: successful depletion
- effect on tumor cell depletion by suicide switch CAR T cells ([4]; 16 hour delayed lenalidomide, dual-vector CAR T cells): ablated tumor cell depletion
- effect on tumor cell cytolysis by suicide switch CAR T cells ([4]; immediate lenalidomide, dual-vector CAR T cells): prevented tumor cell cytolysis
- effect on anti-tumor cytolysis, single lentivector ICAD-degron/CAD/CAR T cells ([4]; with lenalidomide): prevented
- time to depletion of the CAR T cells ([5]; after 16 hour delayed lenalidomide, without rebound): ≤ 24 h
- effect on suicide switch CAR T cell expansion ([5]; immediate lenalidomide): prevented suicide switch CAR T cell expansion
- drug-dependent cell depletion (loss of BFP+ cells) [1]: allowed for drug-dependent cell depletion
- effect on growth and survival of cells [6]: did not alter the growth and survival
- cell depletion [7]: > 90%

Molecule: ICAD-degron 2A CAD p.R11W: multicistronic transgene: C-terminally degron-tagged human ICAD, 2A, human CAD p.R11W (SEQ ID NO: 19/20)
- DNA damage response by promoter strength ([2]; Jurkat cells, EF1alpha promoter compared with PGK promoter): enhanced DNA damage response
- T cell proliferation in competition with untransduced cells, compared with control [8]: comparable
- cell killing compared with iCasp9 switch [9]: more complete cell killing
- cell viability, normalized fluorescence [10]: improved cell viability
- drug-independent cell fitness [11]: enhanced drug-independent cell fitness
- cell depletion [7]: > 90%

Molecule: ICAD-degron-CADp.R11A: suicide switch transgene with CAD p.R11A (SEQ ID NO: 23/24)
- cell viability, normalized fluorescence [10]: improved cell viability

Molecule: ICAD-degron-CADp.R11W/E68A: suicide switch transgene with CAD p.R11W/E68A (SEQ ID NO: 29/30)
- cell viability, normalized fluorescence [10]: improved cell viability

Molecule: ICAD-degron-CADp.R11W/K18A: suicide switch transgene with CAD p.R11W/K18A (SEQ ID NO: 27/28)
- cell viability, normalized fluorescence [10]: improved cell viability
- cell depletion ([10]; with 1 uM lenalidomide): efficient cell depletion
- drug-independent competitive growth ([10]; without lenalidomide): most improved

Molecule: ICAD-degron-CADp.Y49W: suicide switch transgene with CAD p.Y49W (SEQ ID NO: 25/26)
- cell viability, normalized fluorescence [10]: improved cell viability
